The values that follow come from patent EP3130589A1, “HETEROCYCLIC AZA COMPOUNDS” (Grünenthal GmbH, priority 2015, dated 2017).

The experiment addresses T1, TRPV1 human (Homo sapiens, UniProt Q8NER1).
T1 construct: expressed in transfected cells; host or cells: CHO K1 cells
As to the kind of experiment: Functional testing on the vanilloid receptor 1 (VR1/TRPV1): FLIPR Ca2+ influx assay, inhibition of capsaicin (CAP) stimulation. It is filed as cell-based. As to conditions: for Ki: functional (f) FLIPR assay, capsaicin (CAP) 100 nM, Ki from IC50 by Cheng-Prusoff equation; for TRPV1 human (f) CAP, result in words: ne = did not show any effect in this assay, pAG = partial agonist. On the procedure:
Furthermore, preference may be given to compounds according to the invention that cause a 50 per cent displacement of capsaicin, which is present at a concentration of 100 nM, in a FLIPR assay with CHO K1 cells which were transfected with the human VR1 gene at a concentration of less than 6,000 nM, preferably less than 5,000 nM, more preferably less that 3,000 nM or less than 1,000 nM and particularly preferably less than 300 nM, most particularly preferably less than 100 nM, even more preferably less than 75 nM, additionally preferably less than 50 nM, most preferably less than 10 nM.
In the process, the Ca^2+ influx is quantified in the FLIPR assay with the aid of a Ca^2+-sensitive dye (type Fluo-4, Molecular Probes Europe BV, Leiden, the Netherlands) in a fluorescent imaging plate reader (FLIPR, Molecular Devices, Sunnyvale, USA), as described hereinafter.
Functional testing carried out on the vanilloid receptor 1 (VRI/TRPV1 receptor) […]
The number of cells in the suspension is set to 3 x 10^5 per mL and 150 µL of this suspension are in each case introduced into a recess in the cell culture plates coated as described hereinbefore. In the incubator the plates are left for two to three days at 37°C, 5 vol.-% of CO2 and 95 % relative humidity. Subsequently, the cells are loaded with 2 µM of Fluo-4 and 0.01 vol.-% of Pluronic F127 (Molecular Probes Europe BV, Leiden, the Netherlands) in HBSS buffer for 30 min at 37°C, washed 3 times with HBSS buffer and after further incubation for 15 min at RT used for Ca^2+ measurement in a FLIPR assay. The Ca^2+-dependent fluorescence is in this case measured before and after the addition of substances (λex = 488 nm, λem = 540 nm). Quantification is carried out by measuring the highest fluorescence intensity (FC, fluorescence counts) over time.
The FLIPR protocol consists of 2 substance additions. First the compounds to be tested (10 µM) are pipetted onto the cells and the Ca^2+ influx is compared with the control (capsaicin 10 µM). This provides the result in % activation based on the Ca^2+ signal after the addition of 10 µM of capsaicin (CP). After 5 min incubation, 100 nM of capsaicin are applied and the Ca^2+ influx is also determined. Desensitising agonists and antagonists lead to suppression of the Ca^2+ influx. The % inhibition is calculated compared to the maximum achievable inhibition with 10 µM of capsazepine.
Triple analyses (n=3) are carried out and repeated in at least 3 independent experiments (N=4). Starting from the percentage displacement caused by different concentrations of the compounds to be tested of general formula I, IC50 inhibitory concentrations which cause a 50% displacement of capsaicin were calculated.
Ki values for the test substances were obtained by conversion by means of the Cheng-Prusoff equation (Cheng, Prusoff; Biochem. Pharmacol. 22, 3099-3108, 1973).

Structures are written as SMILES.

T1 sequence (Q8NER1 whole entry): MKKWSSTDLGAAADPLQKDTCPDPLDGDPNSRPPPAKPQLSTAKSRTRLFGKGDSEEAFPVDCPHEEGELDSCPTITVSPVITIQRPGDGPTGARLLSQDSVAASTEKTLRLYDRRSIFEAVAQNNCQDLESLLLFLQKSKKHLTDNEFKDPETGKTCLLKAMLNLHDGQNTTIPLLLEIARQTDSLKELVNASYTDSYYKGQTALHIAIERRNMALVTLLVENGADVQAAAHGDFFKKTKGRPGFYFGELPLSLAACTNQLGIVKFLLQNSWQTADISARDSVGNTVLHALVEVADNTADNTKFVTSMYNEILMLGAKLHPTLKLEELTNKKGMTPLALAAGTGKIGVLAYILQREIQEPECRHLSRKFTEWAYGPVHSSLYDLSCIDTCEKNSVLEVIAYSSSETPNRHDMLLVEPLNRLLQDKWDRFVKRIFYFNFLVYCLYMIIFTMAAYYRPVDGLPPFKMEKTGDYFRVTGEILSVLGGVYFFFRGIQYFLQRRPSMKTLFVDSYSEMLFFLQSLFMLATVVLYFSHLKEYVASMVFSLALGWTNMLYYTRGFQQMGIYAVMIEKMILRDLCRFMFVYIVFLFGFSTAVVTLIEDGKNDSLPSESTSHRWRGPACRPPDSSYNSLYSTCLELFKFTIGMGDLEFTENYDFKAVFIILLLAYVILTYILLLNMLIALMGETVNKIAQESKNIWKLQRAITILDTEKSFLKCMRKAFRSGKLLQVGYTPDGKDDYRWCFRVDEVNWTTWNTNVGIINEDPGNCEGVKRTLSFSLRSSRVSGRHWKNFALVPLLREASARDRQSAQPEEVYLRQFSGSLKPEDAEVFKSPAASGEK

The Ki is the dissociation constant of the complex between target and ligand, obtained from inhibition or displacement. High values mean weaker binding, low ones tighter binding. As for `CC1CCN(c2nc(C(F)(F)F)ccc2CNC(=O)Nc2nc3c([N+](=O)[O-])cccc3s2)CC1` [example compound 24, 1-((2-(4-methylpiperidin-1-yl)-6-(trifluoromethyl)pyridin-3-yl)methyl)-3-(4-nitrobenzo[d]thiazol-2-yl)urea], the affinity corresponds to a Ki of 31.2 nM and the “TRPV1 human (f) CAP, result in words” value is listed as “pAG”.

As for `CC1CCN(c2nc(C(F)(F)F)ccc2CNC(=O)Nc2nc3ccccc3s2)CC1` [example compound 25, 1-(benzo[d]thiazol-2-yl)-3-((2-(4-methylpiperidin-1-yl)-6-(trifluoromethyl)pyridin-3-yl)methyl)urea], the Ki is 84.9 nM.

In the case of `CC1CCN(c2nc(C(F)(F)F)ccc2CNC(=O)Nc2nc3ccccc3[nH]2)CC1` [example compound 26, 1-(1H-benzo[d]imidazol-2-yl)-3-((2-(4-methylpiperidin-1-yl)-6-(trifluoromethyl)pyridin-3-yl)methyl)urea], the “TRPV1 human (f) CAP, result in words” value was “ne”.
